ChEMBL document CHEMBL1130636, “PDE4 inhibitors: new xanthine analogues” (Bioorg Med Chem Lett, 1998)
Activity calls are given as the source filed them. The rule behind the calls is not given here.

What was measured:
Phosphodiesterase 4 [1] = target: T1, Phosphodiesterase 4 (Homo sapiens, UniProt P27815+Q08499+Q07343+Q08493); assay: Inhibition of PDE4; format: protein assay
Phosphodiesterase 4 [2] = target: T1, Phosphodiesterase 4; assay: Inhibition of rolipram binding to PDE4; format: protein assay
Phosphodiesterase 4 [3] = target: T1, Phosphodiesterase 4; assay: Relative inhibition of PDE4 activity and rolipram binding to PDE4; format: protein assay
Cavia porcellus [4] = assay: Inhibition of eosinophil recruitment in guinea pig lung asthma model at 10 mg/kg; format: functional
Phosphodiesterase 4 [5] = target: T1, Phosphodiesterase 4; assay: Inhibition of rolipram binding; format: protein assay
Cavia porcellus [6] = assay: Inhibition of eosinophil recruitment in guinea pig lung asthma model at 30 mg/kg oral dose; format: functional
Cavia porcellus [7] = assay: Inhibition of eosinophil recruitment in guinea pig lung asthma model at 10 mg/kg oral dose; format: functional
Mustela putorius furo = assay: Emetic effect in ferrets on oral administration at 10 mg/kg (No effect); format: functional, organism-based; parameters: dose 10 mg/kg

O=c1c2[nH]cnc2n(-c2ccccc2C(F)(F)F)c(=O)n1Cc1ccccc1
IC50 (Phosphodiesterase 4 [1]): 20 µM

O=c1c2[nH]cnc2n(-c2cccc(Cl)c2)c(=O)n1Cc1ccccc1
IC50 (Phosphodiesterase 4 [2]): 0.042 µM
Ratio (Phosphodiesterase 4 [3]): 156
IC50 (Phosphodiesterase 4 [1]): 6.55 µM

COc1ccc(C2CNC(=O)C2)cc1OC1CCCC1 (centres undefined) [ROLIPRAM]
inhibition in vivo at 10 mg/kg (Cavia porcellus [4]): 48%

O=c1c2[nH]cnc2n(-c2ccccc2F)c(=O)n1Cc1ccccc1
Ratio (Phosphodiesterase 4 [3]): 10.9
IC50 (Phosphodiesterase 4 [1]): 2.4 µM
IC50 (Phosphodiesterase 4 [5]): 0.22 µM

Cc1ccccc1-n1c(=O)n(Cc2cccs2)c(=O)c2[nH]cnc21
Ratio (Phosphodiesterase 4 [3]): 4.1
inhibition in vivo at 30 mg/kg (Cavia porcellus [6]): 70%
IC50 (Phosphodiesterase 4 [1]): 4.2 µM
inhibition in vivo at 10 mg/kg (Cavia porcellus [7]): 56%
Activity (Mustela putorius furo): inactive
IC50 (Phosphodiesterase 4 [5]): 1.02 µM

CSc1ccccc1-n1c(=O)n(Cc2ccccc2)c(=O)c2[nH]cnc21
IC50 (Phosphodiesterase 4 [1]): 20 µM

CC(C)(C)c1ccccc1-n1c(=O)n(Cc2ccccc2)c(=O)c2[nH]cnc21
IC50 (Phosphodiesterase 4 [1]): > 20 µM

Cc1ccccc1-n1c(=O)n(Cc2ccco2)c(=O)c2[nH]cnc21
Ratio (Phosphodiesterase 4 [3]): 10.9
IC50 (Phosphodiesterase 4 [1]): 11.95 µM
IC50 (Phosphodiesterase 4 [5]): 1.1 µM

C[S+]([O-])c1ccccc1-n1c(=O)n(Cc2ccccc2)c(=O)c2[nH]cnc21 (centres undefined)
IC50 (Phosphodiesterase 4 [1]): 100 µM

Nc1cccc(-n2c(=O)n(Cc3ccccc3)c(=O)c3[nH]cnc32)c1
Ratio (Phosphodiesterase 4 [3]): 34
IC50 (Phosphodiesterase 4 [1]): 11 µM
IC50 (Phosphodiesterase 4 [5]): 0.32 µM

C[S+]([O-])c1cccc(-n2c(=O)n(Cc3ccccc3)c(=O)c3[nH]cnc32)c1 (centres undefined)
Ratio (Phosphodiesterase 4 [3]): 35
IC50 (Phosphodiesterase 4 [1]): 56 µM
IC50 (Phosphodiesterase 4 [5]): 1.6 µM

O=c1c2[nH]cnc2n(-c2ccccc2)c(=O)n1Cc1ccccc1
Ratio (Phosphodiesterase 4 [3]): 60
IC50 (Phosphodiesterase 4 [1]): 4.8 µM
IC50 (Phosphodiesterase 4 [5]): 0.08 µM

O=C(O)c1cccc(-n2c(=O)n(Cc3ccccc3)c(=O)c3[nH]cnc32)c1
IC50 (Phosphodiesterase 4 [1]): 110 µM

COC(=O)c1cccc(-n2c(=O)n(Cc3ccccc3)c(=O)c3[nH]cnc32)c1
Ratio (Phosphodiesterase 4 [3]): 453
IC50 (Phosphodiesterase 4 [1]): 4.08 µM
IC50 (Phosphodiesterase 4 [5]): 0.009 µM

COc1cccc(-n2c(=O)n(Cc3ccccc3)c(=O)c3[nH]cnc32)c1
Ratio (Phosphodiesterase 4 [3]): 353
IC50 (Phosphodiesterase 4 [1]): 6.01 µM
IC50 (Phosphodiesterase 4 [5]): 0.017 µM

Cc1ccccc1-n1c(=O)n(Cc2ccccc2)c(=O)c2[nH]cnc21
Ratio (Phosphodiesterase 4 [3]): 11.9
IC50 (Phosphodiesterase 4 [1]): 7.97 µM
IC50 (Phosphodiesterase 4 [5]): 0.67 µM
